Experimental data from ChEMBL document CHEMBL5029178, “Discovery of 3-amino-4-{(3S)-3-[(2-ethoxyethoxy)methyl]piperidin-1-yl}thieno[2,3-b]pyridine-2-carboxamide (DS96432529): A potent and orally active bone anabolic agent” (Bioorg Med Chem Lett, 2021).
Values after ≈ are worked out from the molar mass of the structure shown. Active and inactive are the calls of the source. No cut-off for these calls is given here.

Key:
[1] = system: ST-2; experiment: […] of alkaline phosphatase activity in mouse ST-2 cells; format: cell-based
[2] = Solubility of the compound in JP2 fluid at pH 6.8; format: physicochemical
[3] = Cmax in Fischer 344 rat at 3 mg/kg, po; format: ADME, organism-based; set-up: route oral, dose 3 mg/kg; details: in vivo
[4] = AUC (0 to 8 hrs) in Fischer 344 rat at 3 mg/kg, po; format: ADME, organism-based; set-up: time < 8 hr, route oral, dose 3 mg/kg; details: in vivo
[5] = AUC in Fischer 344 rat at 100 mg/kg, po; format: ADME, organism-based; set-up: dose 100 mg/kg; details: in vivo
[6] = Metabolic stability in human liver microsomes assessed as compound remaining at 0.5 mg/ml measured after 30 mins; format: ADME, Microsome; details: read-out: Stability
[7] = molecular target: T1, CYP1A2 (Homo sapiens, UniProt P05177); experiment: Inhibition of CYP1A2 (unknown origin) at 10 uM; format: ADME
T1 sequence (P05177 whole entry): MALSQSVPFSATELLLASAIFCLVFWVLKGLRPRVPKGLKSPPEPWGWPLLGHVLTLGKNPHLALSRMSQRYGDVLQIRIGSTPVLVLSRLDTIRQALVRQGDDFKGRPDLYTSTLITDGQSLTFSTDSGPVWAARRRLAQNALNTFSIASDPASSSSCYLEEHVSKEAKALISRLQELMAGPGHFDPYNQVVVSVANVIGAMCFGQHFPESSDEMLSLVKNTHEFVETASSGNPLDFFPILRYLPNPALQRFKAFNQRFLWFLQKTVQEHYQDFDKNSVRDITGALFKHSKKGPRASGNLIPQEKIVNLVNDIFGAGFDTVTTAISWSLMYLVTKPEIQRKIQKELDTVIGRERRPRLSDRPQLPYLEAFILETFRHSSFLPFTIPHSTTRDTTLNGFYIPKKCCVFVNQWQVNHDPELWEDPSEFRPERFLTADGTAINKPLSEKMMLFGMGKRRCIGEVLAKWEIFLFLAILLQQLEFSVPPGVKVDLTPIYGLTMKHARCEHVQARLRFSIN

[8] = molecular target: CYP2C9 (Homo sapiens, UniProt P11712); experiment: Inhibition of CYP2C9 (unknown origin) at 10 uM; format: ADME
Chain of CYP2C9 (P11712 whole entry): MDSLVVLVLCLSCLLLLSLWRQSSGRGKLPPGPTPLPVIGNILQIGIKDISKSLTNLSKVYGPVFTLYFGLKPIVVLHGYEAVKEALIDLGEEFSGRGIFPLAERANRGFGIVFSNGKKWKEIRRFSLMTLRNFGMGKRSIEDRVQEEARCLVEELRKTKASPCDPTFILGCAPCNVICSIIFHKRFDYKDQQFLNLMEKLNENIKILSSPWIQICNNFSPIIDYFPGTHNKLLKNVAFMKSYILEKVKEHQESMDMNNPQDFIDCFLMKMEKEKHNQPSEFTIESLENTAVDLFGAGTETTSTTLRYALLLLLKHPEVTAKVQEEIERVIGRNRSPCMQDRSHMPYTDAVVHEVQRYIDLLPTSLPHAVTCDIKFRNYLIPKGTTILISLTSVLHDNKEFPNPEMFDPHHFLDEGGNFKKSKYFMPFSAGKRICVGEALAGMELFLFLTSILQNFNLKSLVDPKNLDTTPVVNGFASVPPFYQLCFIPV

[9] = molecular target: CYP2C19 (Homo sapiens, UniProt P33261); experiment: Inhibition of CYP2C19 (unknown origin) at 10 uM; format: ADME
Chain of CYP2C19 (P33261 whole entry): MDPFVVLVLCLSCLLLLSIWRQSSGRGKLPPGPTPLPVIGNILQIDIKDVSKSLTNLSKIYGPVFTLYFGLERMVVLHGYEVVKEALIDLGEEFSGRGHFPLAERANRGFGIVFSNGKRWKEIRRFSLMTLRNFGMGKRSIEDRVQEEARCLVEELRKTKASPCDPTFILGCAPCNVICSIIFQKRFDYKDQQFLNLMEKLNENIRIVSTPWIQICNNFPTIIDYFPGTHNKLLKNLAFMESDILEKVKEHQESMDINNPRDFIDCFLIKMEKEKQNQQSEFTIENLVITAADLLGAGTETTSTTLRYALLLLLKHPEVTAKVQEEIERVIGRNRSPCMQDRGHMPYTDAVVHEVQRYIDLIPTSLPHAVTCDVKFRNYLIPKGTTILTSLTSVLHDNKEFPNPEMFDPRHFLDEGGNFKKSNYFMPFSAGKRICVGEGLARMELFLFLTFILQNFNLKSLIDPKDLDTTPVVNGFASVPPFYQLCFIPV

[10] = molecular target: CYP2D6 (Homo sapiens, UniProt P10635); experiment: Inhibition of CYP2D6 (unknown origin) at 10 uM; format: ADME
Chain of CYP2D6 (P10635 whole entry): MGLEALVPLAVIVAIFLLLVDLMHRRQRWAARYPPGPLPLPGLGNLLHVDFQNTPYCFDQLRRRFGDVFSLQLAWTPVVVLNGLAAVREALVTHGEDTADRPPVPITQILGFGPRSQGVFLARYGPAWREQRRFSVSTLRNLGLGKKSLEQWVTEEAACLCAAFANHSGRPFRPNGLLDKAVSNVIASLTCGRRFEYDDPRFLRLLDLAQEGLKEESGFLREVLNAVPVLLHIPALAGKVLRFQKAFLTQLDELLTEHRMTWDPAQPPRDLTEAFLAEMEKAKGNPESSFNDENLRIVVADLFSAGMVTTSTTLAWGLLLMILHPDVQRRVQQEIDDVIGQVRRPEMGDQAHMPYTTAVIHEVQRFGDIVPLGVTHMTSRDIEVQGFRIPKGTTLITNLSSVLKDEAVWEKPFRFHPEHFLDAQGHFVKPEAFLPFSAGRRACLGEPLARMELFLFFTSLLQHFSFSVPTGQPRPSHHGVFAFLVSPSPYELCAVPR

[11] = molecular target: T2, CYP3A4 (Homo sapiens, UniProt P08684); experiment: Inhibition of CYP3A4 (unknown origin) at 10 uM; format: ADME
T2 sequence (P08684 whole entry): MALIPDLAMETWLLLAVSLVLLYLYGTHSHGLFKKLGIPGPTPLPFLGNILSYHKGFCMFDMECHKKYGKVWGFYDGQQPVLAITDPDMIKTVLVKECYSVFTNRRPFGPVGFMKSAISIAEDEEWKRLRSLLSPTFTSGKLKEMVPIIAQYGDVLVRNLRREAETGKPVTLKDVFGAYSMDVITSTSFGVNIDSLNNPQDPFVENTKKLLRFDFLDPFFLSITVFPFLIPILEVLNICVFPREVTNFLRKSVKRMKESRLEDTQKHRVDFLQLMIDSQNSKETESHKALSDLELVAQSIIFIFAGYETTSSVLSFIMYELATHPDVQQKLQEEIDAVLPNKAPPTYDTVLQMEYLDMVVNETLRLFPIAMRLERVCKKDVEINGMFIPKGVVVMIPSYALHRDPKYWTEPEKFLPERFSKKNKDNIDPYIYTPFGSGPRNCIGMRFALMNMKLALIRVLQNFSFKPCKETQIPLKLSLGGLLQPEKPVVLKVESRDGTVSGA

[12] = molecular target: T2, CYP3A4; experiment: Time dependent inhibition of CYP3A4 in human liver microsomes assessed as parent compound remaining at 100 uM; format: ADME; details: read-out: TDI
[13] = Effective permeability coefficient at pH 5 by PAMPA method; format: ADME; details: read-out: Peff
[14] = Effective permeability coefficient at pH 7.4 by PAMPA method; format: ADME; details: read-out: Peff
[15] = system: Rattus norvegicus; experiment: Anti-osteoporosis activity in ovariectomized rat assessed as […] in areal bone mineral density in humeral diaphysis at 1 mg/kg, po qd measured after 14 weeks; format: functional, organism-based
[16] = system: Rattus norvegicus; experiment: Anti-osteoporosis activity in ovariectomized rat assessed as […] in areal bone mineral density in total humerus at 1 mg/kg, po qd measured after 14 weeks; format: functional, organism-based
[17] = system: Rattus norvegicus; experiment: Anti-osteoporosis activity in ovariectomized rat assessed as […] in areal bone mineral density in humeral diaphysis at 3 mg/kg, po qd measured after 14 weeks; format: functional, organism-based
[18] = system: Rattus norvegicus; experiment: Anti-osteoporosis activity in ovariectomized rat assessed as increase in bone strength at 1 mg/kg, po; format: functional, organism-based
[19] = system: Rattus norvegicus; experiment: Antiosteoporotic activity against OVX-induced rat model assessed as increase in osteocalcin secretion in serum at 3 mg/kg/day; format: functional, organism-based
[20] = system: Rattus norvegicus; experiment: Antiosteoporotic activity against OVX-induced rat model assessed as increase in deo-xypyridinoline level at 0.3 mg/kg/day; format: functional, organism-based

Molecule `COC[C@H]1CCCN(c2ccnc3sc(C(N)=O)c(N)c23)C1` has an EC200 [1] of 0.022 µg/mL, a solubility [2] of 220 µg/mL (≈ 687 µM) and a Cmax [3] of 80.5 ng/mL. The AUC(0-t) at 8 h [4] was 227 ng·h/mL.
Work on `Cc1cc(N2CCC[C@H](COCc3nc(C)no3)C2)c2c(N)c(C(N)=O)sc2n1` yielded an EC200 [1] of 0.026 µg/mL, a Cmax [3] of 188 ng/mL and an AUC(0-t) at 8 h [4] of 722 ng·h/mL.
With `Cn1ccnc1COC[C@H]1CCCN(c2ccnc3sc(C(N)=O)c(N)c23)C1` the EC200 [1] was 0.019 µg/mL, the Cmax [3] was 15.1 ng/mL and the AUC(0-t) at 8 h [4] was 45 ng·h/mL.
`CN(C)c1ccnc2sc(C(N)=O)c(N)c12` gave an EC200 [1] of 0.17 µg/mL.
`COCC1CCCN(c2ccnc3sc(C(N)=O)c(N)c23)C1` (stereo in doubt; 9g) [listing 1 of 2 here] showed an EC200 [1] of 0.049 µg/mL.
Work on `NC(=O)c1sc2nccc(N3CCCC(C(=O)O)C3)c2c1N` (stereo not drawn) yielded an EC200 [1] greater than 0.3 µg/mL and an AUC [5] of 18800 ng·h/mL.
Work on `NC(=O)c1sc2nccc(N3CCCCC3)c2c1N` yielded an EC200 [1] of 0.067 µg/mL, a remaining at 0.5 h [6] of 20% and an inhibition at 10 µM [7] of 62%. It also gave an inhibition at 10 µM [8] of 4%, an inhibition at 10 µM [9] of 0% and an inhibition at 10 µM [10] of 9%. For the same molecule, the inhibition at 10 µM [11] was 23% and the remaining at 100 µM [12] was 92%.
For `NC(=O)c1sc2nccc(N3CCCC(O)C3)c2c1N` (stereo not drawn), the EC200 [1] was 0.17 µg/mL.
With `NC(=O)c1sc2nccc(N3CCC[C@H](COCCO)C3)c2c1N` the EC200 [1] was 0.017 µg/mL, the Cmax [3] was 114 ng/mL and the AUC(0-t) at 8 h [4] was 320 ng·h/mL. It also gave a Papp [13] of 2.8 ×10⁻⁶ cm/s and a Papp [14] of 2.9 ×10⁻⁶ cm/s.
Molecule `Cc1cc(Oc2ccc(CCCC(=O)N(C)C)cc2F)c2c(N)c(C(N)=O)sc2n1` has an EC200 [1] of 0.0005 µg/mL.
`Cc1noc(COC[C@H]2CCCN(c3ccnc4sc(C(N)=O)c(N)c34)C2)n1` showed an EC200 [1] of 0.017 µg/mL, a Cmax [3] of 158 ng/mL and an AUC(0-t) at 8 h [4] of 563 ng·h/mL.
With `COC[C@@H]1CCCN(c2ccnc3sc(C(N)=O)c(N)c23)C1` the EC200 [1] was 0.25 µg/mL.
Molecule `Cc1nsc(COC[C@H]2CCCN(c3ccnc4sc(C(N)=O)c(N)c34)C2)n1` has an EC200 [1] of 0.05 µg/mL.
`CC1CCN(c2ccnc3sc(C(N)=O)c(N)c23)CC1` gave an EC200 [1] of 0.23 µg/mL.
`CCOCCOC[C@H]1CCCN(c2cc(C)nc3sc(C(N)=O)c(N)c23)C1` gave an EC200 [1] of 0.03 µg/mL, a solubility [2] of 560 µg/mL (≈ 1430 µM) and a Cmax [3] of 357 ng/mL. It also gave an AUC(0-t) at 8 h [4] of 1350 ng·h/mL.
In the case of `COCCCC1CCCN(c2ccnc3sc(C(N)=O)c(N)c23)C1` (stereo not drawn), the EC200 [1] is reported as 0.026 µg/mL.
`CN(C)C(=O)C1CCCN(c2ccnc3sc(C(N)=O)c(N)c23)C1` (stereo not drawn) showed an EC200 [1] greater than 0.3 µg/mL.
Work on `CCCOCC1CCCN(c2ccnc3sc(C(N)=O)c(N)c23)C1` (stereo not drawn) yielded an EC200 [1] of 0.095 µg/mL.
For `NC(=O)c1sc2nccc(N3CCC[C@H](COCC(=O)N4CCOCC4)C3)c2c1N`, the EC200 [1] was 0.014 µg/mL, the Cmax [3] was 217 ng/mL and the AUC(0-t) at 8 h [4] was 756 ng·h/mL.
For `COC(C)[C@H]1CCCN(c2ccnc3sc(C(N)=O)c(N)c23)C1` (stereo partly drawn), the EC200 [1] was 0.146 µg/mL.
Molecule `Cn1cnnc1COC[C@H]1CCCN(c2ccnc3sc(C(N)=O)c(N)c23)C1` has an EC200 [1] of 0.168 µg/mL.
For `COCCC1CCCN(c2ccnc3sc(C(N)=O)c(N)c23)C1` (stereo not drawn), the EC200 [1] was 0.26 µg/mL.
With `CCOCC1CCCN(c2ccnc3sc(C(N)=O)c(N)c23)C1` (stereo not drawn) the EC200 [1] was 0.031 µg/mL.
With `CCOCCOC[C@H]1CCCN(c2ccnc3sc(C(N)=O)c(N)c23)C1` the EC200 [1] was 0.024 µg/mL, the solubility [2] was 500 µg/mL (≈ 1320 µM) and the Cmax [3] was 804 ng/mL. For the same molecule, the AUC(0-t) at 8 h [4] was 2000 ng·h/mL, the inhibition at 10 µM [7] was 33% and the inhibition at 10 µM [8] was 2%. For the same molecule, the inhibition at 10 µM [9] was 15%, the inhibition at 10 µM [10] was 2% and the inhibition at 10 µM [11] was 10%. The remaining at 100 µM [12] was 82%, the Activity [15] was “Active” and the Activity [16] was “Active”. The Activity [17] was “Active”, the Activity [18] was “Active” and the Activity [19] was “Active”. The Activity [20] was “Active”.
With `COCC1CCCN(c2ccnc3sc(C(N)=O)c(N)c23)C1` (stereo in doubt; 9g) [listing 2 of 2 here] the remaining at 0.5 h [6] was 66%.
With `NC(=O)c1sc2nccc(N3CCCC(CO)C3)c2c1N` (stereo not drawn) the EC200 [1] was 0.076 µg/mL.
Molecule `NC(=O)c1sc2nccc(N3CCCN(c4ccccc4)CC3)c2c1N` has an EC200 [1] of 0.051 µg/mL and a remaining at 100 µM [12] of 28%.
Work on `CC1CCCN(c2ccnc3sc(C(N)=O)c(N)c23)C1` (stereo not drawn) yielded an EC200 [1] of 0.024 µg/mL and a remaining at 0.5 h [6] of 18%.
For `CC(C)OC[C@H]1CCCN(c2ccnc3sc(C(N)=O)c(N)c23)C1`, the EC200 [1] was 0.057 µg/mL.
With `COCC1CCCN(c2ccnc3sc(C(N)=O)c(N)c23)C1` (racemic) the EC200 [1] was 0.049 µg/mL.
